Laboratory results published in patent publication US20060110481A1, “COMPOSITIONS CONTAINING VITEX AGNUS-CASTUS BERRY OIL FOR COSMECEUTICAL APPLICATIONS AND METHOD OF ISOLATION OF THE ACTIVE COMPONENT” (SAMI LABS LIMITED, priority 2004, published 2006).

Key:
Assay type in all cases: cell-based
E. coli = test: Disc diffusion antimicrobial study against E. coli
Description: (§1) Procedure: Medium used for this study was reinforced clostridial Agar (RCA). The medium which was prepared and sterilized in 30 ml vials was poured into the plates inside the chamber and allowed to solidity. The culture was inoculated [0.3 ml/plate] into the plates and spread. After 30 minutes, antibacterial sterile discs [6 mm] were dispensed (2/plate), and 2.5, 5.0, 7.5 and 10 μl of the prepared samples and controls were dispensed onto the discs. The plates were incubated inside the anaerobic chamber at 37° C. for 48 hours duration.
(§2) Antimicrobial studies of Vitex oil against general pathogenic aerobic bacteria such as E. coli and S. aureus were also carried out. E. coli was grown in lactose broth and S. aureus in nutrient broth. The method used was the same as it was followed for P. acnes. Clindac A (Clindamycin phosphate gel 1% w/w) was used as positive control. The clearence zone formed around the discs were measured and expressed in mm.

S. aureus = test: Disc diffusion antimicrobial study against S. aureus
Description: as §1, §2

[1] = system: Propionibacterium acnes ATCC 11827; test: Direct bioautography on thin layer chromatograms; settings: TLC bioautography, P. acnes
Description: The antibacterial effects of aqueous, methanolic Vitex agnus castus fruit extract and various extract fractions of different polarities were evaluated by bioautography technique. […] Further fractionation of oil has been done by Silica gel chromatography. Silica gel was been loaded more than half quantity of oil and fraction was collected from mobile phase, hexane, chloroform, 50% chloroform, chloroform, 10% methanol, 50% Methanol and Methanol alone. Active fraction was identified by bioautography technique.
Direct bioautography is the technique used to localize antibacterial activity on a chromatogram. (Lund et al. 1975)
In the present study, the separated fractions of Vitex oil were subjected to Thin Layer Chromatography on silica gel. The solvent system used was hexane: chloroform in 7:3 proportion [FIG. 1]. These chromatograms were dried in the oven at 60° C. for 1 hour to eliminate the traces of solvents. This can be visualized either by spraying the thin layer chromatogram with 5% methanolic sulphuric acid followed by heat drying or under UV light. The plates were taken to the anaerobic chamber where the bioautography experiment was carried out. The medium used was reinforced clostridial agar medium. […]
After incubation, 1-1.2 ml of tetrazolium salt solution [2% concentration] was sprayed as a coloring reagent on the plates. […] The diameter of the zones were measured and expressed in mm.

MIC (E. coli; E. coli): 1.0%
MIC (S. aureus; S. aureus): 1.0%
SMILES: COc1ccc(-c2oc3cc(OC)c(OC)c(O)c3c(=O)c2OC)cc1OC [Artemetin]
zone of inhibition at 0.5 % strength (E. coli; Escherichia coli, concentration 0.5 % w/v): 0 mm
zone of inhibition at 1 % strength (E. coli; Escherichia coli, concentration 1 % w/v): 9 mm
zone of inhibition at 5 % strength (E. coli; Escherichia coli, concentration 5 % w/v): 12 mm
zone of inhibition at 0.5 % strength (S. aureus; Staphylococcus aureus, concentration 0.5 % w/v): 0 mm
zone of inhibition at 1 % strength (S. aureus; Staphylococcus aureus, concentration 1 % w/v): 8 mm
zone of inhibition at 5 % strength (S. aureus; Staphylococcus aureus, concentration 5 % w/v): 10 mm
Antibacterial activity by bioautography (in words) [1]: Clearance zone was exhibited
